Cc1cnc(NC(=O)C2=C(O)c3ccccc3S(=O)(=O)N2C)s1
solubility (mole fraction)
Conditions	293.15 K	298.15 K	303.15 K	308.15 K	313.15 K
in DMF	0.0117	0.0128	0.0139	0.0153	0.0163
in formamide	0.00069	0.000749	0.000802	0.000872	0.000927
in n-methylformamide	0.00149	0.00159	0.00169	0.00182	0.00191

Reference: BigSolDB 2.1
